Assay results as given in patent US7074824B2, “Pharmaceutical compositions containing beta-lapachone, or derivatives or analogs thereof, and methods of using same” (Arqule, Inc., priority 2001, dated 2006).
Values after ≈ are worked out from the molar mass of the structure shown.

Assays:
[1] = Solubility in water and in 40% (w/v) HPBCD solution by UV absorbance; assay type: physicochemical; details: for solubility at 1 h: thermodynamic from solid
Method: To determine solubilities, test compounds were first dissolved in ethanol to prepare standard solutions with concentrations in the range 2.5–10 mg/ml, then were diluted with to 10 μg/ml with water. UV scans were obtained of the 10 μg/ml standard solutions, and the wavelength of maximum absorbance and the absorbance at the maximum absorbance wavelength were determined. For each test compound 50 μl aliquots of water and of 40% HPBCD were added to individual Eppendorf tubes containing approximately 1 mg of compound each. The tubes were heated in a 30° C. waterbath, vortexed, then centrifuged at 15,000 rpm for 5 min. This step was repeated, then the tubes were cooled to room temperature for 1 hour, then were centrifuged again. The supernatant from each tube was diluted with water into the appropriate absorbance range, and the UV absorbance was measured at the compound's absorbance maximum wavelength. The concentrations of these saturated solutions were then calculated by ratio to the 10 μg/ml ethanolic standard solutions.

[2] = target: T1, human DNA Topoisomerases I (Homo sapiens, UniProt P11387); details: cited from earlier work
T1 sequence (P11387 1-765): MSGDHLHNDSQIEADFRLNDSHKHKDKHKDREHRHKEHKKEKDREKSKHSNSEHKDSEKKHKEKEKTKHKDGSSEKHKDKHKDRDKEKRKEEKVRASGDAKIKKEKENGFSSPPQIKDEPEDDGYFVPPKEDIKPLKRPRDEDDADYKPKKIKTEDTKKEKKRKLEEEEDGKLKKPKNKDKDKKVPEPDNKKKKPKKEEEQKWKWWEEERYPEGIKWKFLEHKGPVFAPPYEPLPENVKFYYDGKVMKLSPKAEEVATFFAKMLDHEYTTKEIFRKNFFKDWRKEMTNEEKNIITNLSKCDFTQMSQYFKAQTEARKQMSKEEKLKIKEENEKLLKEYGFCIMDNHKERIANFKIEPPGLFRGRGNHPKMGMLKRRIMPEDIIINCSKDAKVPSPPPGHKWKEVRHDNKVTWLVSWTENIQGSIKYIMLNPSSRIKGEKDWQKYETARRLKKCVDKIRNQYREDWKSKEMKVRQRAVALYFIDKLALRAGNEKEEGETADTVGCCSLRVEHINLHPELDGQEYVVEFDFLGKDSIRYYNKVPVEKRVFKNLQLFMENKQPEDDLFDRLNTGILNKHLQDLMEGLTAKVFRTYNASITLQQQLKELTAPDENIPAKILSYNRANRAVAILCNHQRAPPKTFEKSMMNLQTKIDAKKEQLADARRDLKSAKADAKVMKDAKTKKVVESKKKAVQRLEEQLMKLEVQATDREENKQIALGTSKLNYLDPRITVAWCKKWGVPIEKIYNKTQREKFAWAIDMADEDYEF

[3] = system: RPMI 8226 multiple myeloma cells; assay type: in vivo
Method: Chemicals. β-lapachone was synthesized and dissolved in 40% hydroxypropyl β-cyclodextrin at a concentration of 10 mg/mL and kept at room temperature in a dark container. Hydroxypropyl β-cyclodextrin was dissolved in distilled water at a concentration of 10 mg/mL and kept at room temperature. […]®, a basement membrane matrix was purchased from Becton Dickinson Labware (BD Biosciences, Two Oak Park Drive, Bedford, Mass.) and was dissolved in Dulbecco's modified Eagle's medium with 50 μg/mL Gentamycin and kept frozen at −20° C. […]® is extracted from the Engelbreth-Holm-Swarm mouse tumor, a tumor rich in extracellular matrix proteins. The major matrix components are laminin, collagen IV, entactin, and heparan sulfate proteoglycan (perlecan); the matrix also contains growth factors, matrix metalloproteinases (MMPs [collagenases]), and plasminogen activators, without any inhibitors of metalloproteinases (TIMPs). The […] matrix is a solution at 4° C. and gels at room temperature to form a three-dimensional reconstituted basement membrane. This model system closely mimics the structure, composition, physical properties, and functional characteristics of the basement membrane in vivo and provides a physiologically relevant environment for studies of cell morphology, biochemical function, migration or invasion, and gene expression. The frozen […]® matrix was thawed overnight at 4° C. before use.
Cell Cultures. RPMI8226 cells (a human multiple myeloma cell line) were provided Dr. William Dalton (Lee Moffit Cancer Center, Tampa, Fla.). They were maintained by frequent passages in RPMI 1640 (Cellgro®, Mediatech Inc., Herndon, Va.) containing 10% Fetal Bovine serum (FBS) (GibcoBRL, Life Technologies, Grand Island, N.Y.) supplemented with 2×10^−3M L-Glutamine, 100 units/mL penicillin (Pen), and 100 μg/mL streptomycin (Cellgro®D, Mediatech Inc., Herndon, Va.) in 162 cm^2 cell culture flasks (Costar®, Corning Incorporated, Corning, N.Y.). The exponentially growing cell lines were CD138+, CD38+/CD45RA−, EBV negative, and pathogen free.
Mice. Forty male 6 week old Bg-Nu-Xid mice (deficient in T, B, and NK cells) were obtained from the FCRDC, Frederick, Bethesda, Md. and housed at the Redstone animal facility at DFCI. These mice have 3 separate mutations—Beige (Bg) autosomal recessive mutation associated with impaired chemotaxis and motility of macrophages & deficiency of NK cells; the nude (nu) autosomal recessive mutation associated with depletion of T cells due to thymic agenesis; and the X-linked immune defect (xid) which produces functional defects of B lymphocytes. The animals were raised in a barrier facility in cages with saw dust bedding and laminar air at 19–22° C. Rodent food and sterile drinking water were supplied ad libitum. The mice were quarantined to rule out development of any disease. One mouse died during transport, and 5 others were lost because of dehydration (n=2), probable infection (n=2) and excessive bleeding due to trauma (n=1). After 1 week, enrofloxacin (a quinolone antibiotic) was added in drinking water of all mice. All procedures involving animals were approved by and performed according to guidelines of the Institutional Animal Care and Use Committee of the Dana Farber Cancer Institute (DFCI).
Histologic Analysis. The mice were sacrificed when the tumor reached 20 mm in their largest diameter or they became moribund, as per the policy of the Animal Protocol Committee at Dana Farber Cancer Institute. […]

With `CC1(C)CCC2=C(O1)c1ccccc1C(=O)C2=O` [β-lapachone] the “Solubility Enhancement” value ([1]; 1 h) was 323 −Fold, the solubility at 1 h ([1]; aqueous with cosolvent or surfactant or cyclodextrin) was 14000 µg/mL (≈ 57.8 mM) and the solubility at 1 h ([1]; water) was 43 µg/mL (≈ 0.177 mM). The in vitro inhibition [2] was “potent in vitro inhibition”, the “tumor volume versus control group” value ([3]; 50 mg/kg i.p. every alternate day in 40% HPBCD, by day 11, p=0.007) was “statistically significant decrease in tumor volume” and the “survival compared to controls” value ([3]; day 5, 7, 9, 11, 13, 15 and 17, FIG. 16) was “survival was greater”. The “MM cell apoptosis in tumors (mean±SD)” value ([3]; histopathology, light microscopy, p=0.001 versus control) was 41.1%±12.7, the kidney histology ([3]; mouse, in vivo) was “mild tubular vacuolization” and the “microscopic toxicity on liver, heart, lung, brain, and spleen” value ([3]; mouse, in vivo) was “no microscopic evidence of any toxicity”.
